Results published in patent US20200405715A1, “COMPOSITIONS AND METHODS FOR TREATING CANCER AND INFLAMMATORY DISEASES” (University of Pittsburgh - Of the Commonwealth System of …, priority 2016, published 2020).

What was measured:
[1] = system: HepG2 cells; assay: HepG2 cell proliferation (CellTiter-Glo Luminescent Cell Viability Assay); type: cell-based; conditions: 96 h
Procedure: Cell proliferation were then measured by CellTiter-Glo® Luminescent Cell Viability Assay (n=3).
4KHepG2 cells were seeded in 96 well plates for overnight. Compounds listed in Table 3 were then added to each well at various concentrations. 96 h later, cell proliferation was measured by ATP production using a CellTiter-Glo® Luminescent Cell Viability Assay (Promega).
3-(pentylamino)-5-phenylcyclohex-2-en-1-one was modified by adding a different sidechain. These novel compounds were tested further in an in vitro proliferation assay using ATPLite Cell Proliferation kit. […] Others lost activity in reducing Cullin Neddylation and inhibiting cell proliferation (FIG. 3C-D).

[2] = system: HepG2 cells; assay: Cell cycle analysis by BrdU uptake and 7-AAD staining; type: cell-based
Procedure: HepG2 cells were treated with 3-(decylamino)-5-phenylcyclohex-2-en-1-one for 36 h with various concentrations. Cells were then analyzed by BrdU uptake and 7-AAD staining, G0, G1, S, G2/M phase cells were then quantitated and graphed. […] Confluent monolayers of HepG2 cells were injured and cellular migration into the wound was determined under vehicle or 3-(decylamino)-5-phenylcyclohex-2-en-1-one treated condition. 36 h later cells were then observed under white field microscopy and recovery of cells to wound heal was quantified and graphed (right).
HepG2 cells were treated with 3-(decylamino)-5-phenylcyclohex-2-en-1-one at 10 μM for various times. At each time point, cells were analyzed by BrdU uptake and 7-AAD staining, G0, G1, S, G2/M phase cells were then quantitated and graphed. […] Cells were then observed under white field microscopy.

[3] = system: HepG2 tumor tissue; assay: PD/PK study, tumor tissue immunoblotting after single oral dose; type: in vivo, nude mice
Procedure: Nude mice were implanted with HepG2 cells (10^6 cells) through subcutaneous injection. Five weeks later, once tumor size reaches 0.3 cm^3, mice were randomized and given 1 dose of 3-(decylamino)-5-phenylcyclohex-2-en-1-one (15 mg/kg) by oral gavage. Mice were then euthanized, plasma and tumor tissue were isolated for analysis. Tumor tissue were grinded and assayed for protein immunoblotting (n=3-4).
A PD/PK study was also performed. Mice were implanted with HepG2 cells (10^6 cells) through subcutaneous injection. 5 weeks later, once tumor size reached 0.3 cm^3, mice were randomized and given 1 dose of 3-(decylamino)-5-phenylcyclohex-2-en-1-one (15 mg/kg) by oral gavage (FIG. 9A). […] NRF2 protein levels peaked 4 h after administration of BC1558 and started to decline by 8-24 h post-dose. The timing of CDT1 accumulation was compared to NRF2, peaking 4 h after 3-(decylamino)-5-phenylcyclohex-2-en-1-one administration.

[4] = system: Nedd8-cullin; assay: Cullin neddylation, protein immunoblotting in HepG2 cells; type: cell-based
Excerpt: Cells were then collected and assayed for protein immunoblotting. […]
DCN1 protein is believed to harbor a UBC12 binding pocket. Scott et al, Cell 757:1671-84 (2014). […] Scott et al. (2014). The N-terminal acetylation acts as an avidity enhancer within an interconnected multiprotein complex. Science, 554:674-8 (2011). Specifically, n-terminal of UBC12 is acetylated (FIG. 1A, yellow) and completely buried inside the hydrophobic pocket within DCN1 (4gao.PDB, FIG. 1B). Small molecule inhibition of the DCN1 hydrophobic pocket would presumably disrupt UBC12 binding, and thus disrupt Neddylation of Cullin protein. Potential ligands were assessed that might fit the DCN1 domain cavities (FIG. 1B). 3-(pentylamino)-5-phenylcyclohex-2-en-1-one was selected for future testing (FIG. 1C). […] MLN4924 was used as a positive control.

[5] = system: human lung tissue; assay: LPS-treated human lung slices, cytokines and immunoblotting; type: cell-based
Procedure: Cells were then treated with LPS (10 ng/ml) for additional 2 h. Media were then collected and TNF concentration was determined by ELISA. […] Lung tissue was collected and assayed for immunoblotting. Culture media was collected and assayed for cytokines.
3-(decylamino)-5-phenylcyclohex-2-en-1-one was next tested in human lung tissue. Human lung slices were pretreated with 3-(decylamino)-5-phenylcyclohex-2-en-1-one for 18 h before LPS treatment (100 ng/ml) for additional 4 h. […] 3-(decylamino)-5-phenylcyclohex-2-en-1-one reduced nedd8-cullins level and rescued IκBα in a dose dependent manner.

[6] = system: HepG2 cells; assay: Mitotic spindle immunostaining (α-tubulin, DAPI); type: cell-based; conditions: 1 uM, 24 h (FIG. 7B)
Procedure: Cells were then washed with PBS and fixed with 4% paraformaldehyde for 20 min. Cells were co-immunostained for either α-tubulin. Cells were counterstained with DAPI to visualize the nucleus.
The integrity of the centrosome and mitotic spindles after 3-(decylamino)-5-phenylcyclohex-2-en-1-one treatment was examined. HepG2 cells were stained with antibody to α-tubulin to visualize the mitotic spindle (FIG. 7A-B). […] The circular prophase configurations were observed (FIG. 7B, top panel). One classic phenotype of the circular chromosome configuration is circular figures arranged on monopolar spindles around large centrosomes. No spindles assembly in metaphase was observed (FIG. 7B, lower panel).

[7] = system: DSS induced colonic inflammation; assay: DSS induced colitis model; type: in vivo, C57BL6 mice; conditions: DSS in water
Procedure: FIGS. 12A-12D show DCN1 inhibitors reduce DSS induced colonic inflammation, specifically the following experimental results C57BL6 mice were fed with water ad lib containing 3% dextran sulfate sodium (DSS) for six days. DCN1 inhibitors were administered into drinking water at 10 mg/kg/d, starting at day 1. […] The data represent n=4 mice/group, *P<0.05 versus CON.
Also tested were 3-(decylamino)-5-phenylcyclohex-2-en-1-one (BC1558), 3-(dibenzylamino)-5-phenylcyclohex-2-en-1-one (BC1634) and 3-((4-phenoxybenzyl)amino)-5-phenylcyclohex-2-en-1-one (BC1653) in a mouse colitis model to confirm its anti-inflammatory activity. Briefly, C57BL6 mice were fed with water containing 3.5% […] and colonic length was measured. DSS produced a significant decrease in colon length in mice, consistent with colonic inflammation (FIG. 12A-B). […] Colonic tissue cytokine levels were further analyzed.

[8] = system: Clvd-caspase3 and Clvd-PARP; assay: Apoptosis markers, protein immunoblotting in HepG2 cells; type: cell-based
[9] = single dose 15 mg/kg oral gavage, tumor tissue
[10] = human lung slices, dose dependent

CCCCCCCCCCNC1=CC(=O)CC(c2ccccc2)C1 (stereo not shown) [BC1558, 3-(decylamino)-5-phenylcyclohex-2-en-1-one]
inhibiting cell proliferation ([1]; various concentrations (FIG. 3D)): exhibited activity
IC50 ([1]; Homo sapiens, ATP production, n=3, read-out: IC50Proliferation): < 1000 nM
G0 and G2/M phases ([2]; 10 μM, at 16 h (FIG. 6B)): increased
S phase ([2]; 10 μM, at 16 h (FIG. 6B)): effectively decreased
G0 and G2/M phases ([2]; 36 h, dose dependent (FIG. 5B)): increased
S phase ([2]; 36 h, dose dependent (FIG. 5B)): effectively decreased
phosphorylated CHK1 (Ser 317), DNA damage in the tumor ([3]; at 8 h after a single administration, 15 mg/kg oral gavage): increased levels
steady state levels of NRF2 and CDT1 [3, 9]: time-dependent increase
time at which NRF2 protein levels started to decline post-dose [3, 9]: 8 to 24 h
time of maximal effect on NEDD8-cullin levels post-dose [3, 9]: 2 to 4 h
time of peak CDT1 accumulation after administration [3, 9]: 4 h
time of peak NRF2 protein levels after administration [3, 9]: 4 h
time to decrease of NEDD8-cullin levels after administration ([3]; single dose 15 mg/kg oral gavage, tumor tissue (FIG. 9B)): ≤ 1 h
neddylation of several cullin isoforms ([4]; 10 μM, time dependent (FIG. 6A)): drastically reduced
neddylation of several cullin isoforms ([4]; 48 h, dose dependent (FIG. 5A)): drastically reduced
activity compared with MLN4924 ([4]; 48 h, various concentration (FIG. 4)): comparable activity
reducing Cullin Neddylation ([4]; 48 h, various concentrations (FIG. 3C)): exhibited activity
IκBα [5, 10]: rescued
nedd8-cullins level [5, 10]: reduced
LPS induced IL1, IL6 and TNF release from lung tissue ([5]; pretreated 18 h, LPS 100 ng/ml for 4 h): potently inhibited
integrity of the centrosome and mitotic spindles [6]: Abnormal cells with several representative mitotic abnormalities were also detected
colon length compared vehicle ([7]; compounds in drinking water at 10 mg/kg/d (FIG. 12A-B)): significant increase
IL1β and IL6 levels in colonic tissue compared to vehicle ([7]; compounds in drinking water at 10 mg/kg/d (FIG. 12C-D)): large reduction
apoptosis markers Clvd-caspase3 and Clvd-PARP ([8]; 10 μM, various times (FIG. 6A)): effectively increased
apoptosis markers Clvd-caspase3 and Clvd-PARP ([8]; 48 h, various concentrations (FIG. 5A)): effectively increased
